Literature values as cited in patent US20260295002A1, “GASTROINTESTINAL RETENTIVE FORMULATIONS OF ECHINOCANDINS” (The Cleveland Clinic Foundation, priority 2023, published 2026).
Where a name gives a salt, the structure may show the parent alone.

Conditions: background statement

Row | SMILES | oral bioavailability
1 | CCC(C)CC(C)CCCCCCCCC(=O)N[C@H]1C[C@@H](O)[C@@H](NCCN)NC(=O)[C@@H]2[C@@H](O)CCN2C(=O)[C@H]([C@H](O)CCN)NC(=O)[C@H]([C@H](O)[C@@H](O)c2ccc(O)cc2)NC(=O)[C@@H]2C[C@@H](O)CN2C(=O)[C@H]([C@@H](C)O)NC1=O (some centres unmarked) [Caspofungin] | poor oral bioavailability
2 | CC[C@H](C)C[C@H](C)CCCCCCCCC(=O)N[C@H]1C[C@@H](O)[C@@H](NCCN)NC(=O)[C@@H]2[C@@H](O)CCN2C(=O)[C@H]([C@H](O)CCN)NC(=O)[C@H]([C@H](O)[C@@H](O)c2ccc(O)cc2)NC(=O)[C@@H]2C[C@@H](O)CN2C(=O)[C@H]([C@@H](C)O)NC1=O [caspofungin acetate, 1-[(4R,5S)-5-[(2-aminoethyl)amino]-N2-(10,12-dimethyl-1-oxotetradecyl)-4-hydroxy-L-ornithine]-5-[(3R)-3-hydroxy-L-ornithine]pneumocandin B0 diacetate (salt)] | poor oral bioavailability
